The results in this text go back to patent US8975245B2, “Anaesthetic formulation” (Drawbridge Pharmaceuticals Pty Ltd, priority 2010, dated 2015).

The test system of data set [1] is rats. Nature of the data set: Effect of Captisol premedication on the death rate of Althesin.
For data set [2] the following is noted: for time of continuous stirring until it went into solution: 10 mg/ml in 13% w/v sulfobutyl ether β-cyclodextrin in 0.9% saline; for dissolution at a concentration of 10 mg/ml: 13% w/v sulfobutyl ether β-cyclodextrin in 0.9% saline.
Setting [3] is: SBECD7 (13% solution) premed 5.25 mls/kg 60 s before Althesin @ 16 x AD95 (52.5 mg/kg alphaxalone iv), 10 rats.

With “(7) sulfobutyl ether β-cyclodextrin [SBECD7]”, in data set [1] (setting [3]), the “n did not die” value was 8 and the n died amounted to 2. Further, the “effect on mortality caused by alphaxalone as Althesin” value in data set [1] (premedication 60 s before 52.5 mg/kg alphaxalone as Althesin) is “statistically and clinically significant reduction in the mortality”.
Take `CC(=O)[C@H]1CC[C@H]2[C@@H]3CC[C@@H]4C[C@H](O)CC[C@]4(C)[C@H]3CC[C@]12C` [pregnanolone]: in data set [2], the “time of continuous stirring until it went into solution” value stood at 4 h and the “dissolution at a concentration of 10 mg/ml” value is listed as “dissolved incompletely”.
For `C[C@]12CC[C@@H](O)C[C@@H]1CC[C@H]1[C@@H]3CC[C@H](C(=O)CO)[C@@]3(C)CC(=O)[C@@H]12` [alphadolone] the same measures were 4 h and “dissolved completely”.
